Experimental data published in the supplement of paper PMC10307832.

Assays:
Experiment in all cases: relative viability (nuclei count vs DMSO), 5 days (fraction); higher = more cells survive
[1] = compound: CC[C@@H](C)CNCC(=O)N1CCC2=C([C@@H]1COC3=CC=CC(=C3)C)C=CS2 [RU-SKI 43] + CC(=O)Nc1cccc(-n2c(=O)n(C3CC3)c(=O)c3c(Nc4ccc(I)cc4F)n(C)c(=O)c(C)c32)c1 [Trametinib] (partner 0.02 µM)
Summary of the method: (§1)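 Relative viability divides the nuclei count in treated wells by that in vehicle wells. Lung cancer cell lines were seeded in 1536-well plates, dosed by pin tool the next day, and fixed and stained after 5 days in one step with final 0.05% Triton X-100, 1% formaldehyde and 1 ug/ml Hoechst. Dosing was a single drug or a fixed anchor-drug dose plus five library-drug doses (not always all listed) in √10 steps, and values are medians of duplicate plates imaged at 4×.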

[2] = compound: CC[C@@H](C)CNCC(=O)N1CCC2=C([C@@H]1COC3=CC=CC(=C3)C)C=CS2 [RU-SKI 43] + Nc1nc2[nH]cc(CCc3ccc(C(=O)N[C@@H](CCC(=O)O)C(=O)O)cc3)c2c(=O)[nH]1 [Pemetrexed] (partner 0.2 µM)
Summary of the method: as §1

[3] = compound: CCc1c2c(nc3ccc(OC(=O)N4CCC(N5CCCCC5)CC4)cc13)-c1cc3c(c(=O)n1C2)COC(=O)[C@]3(O)CC [Irinotecan] + CCNC(=O)c1noc(-c2cc(C(C)C)c(O)cc2O)c1-c1ccc(CN2CCOCC2)cc1 [Luminespib] (partner 0.01 µM)
Summary of the method: as §1

[4] = compound: CCc1c2c(nc3ccc(OC(=O)N4CCC(N5CCCCC5)CC4)cc13)-c1cc3c(c(=O)n1C2)COC(=O)[C@]3(O)CC [Irinotecan] + NC(=O)Nc1cc(-c2cccc(F)c2)sc1C(=O)N[C@H]1CCCNC1 [AZD7762] (partner 0.2 µM)
Summary of the method: as §1

Cell Line | relative viability ([1]; first compound 0.1 µM) | relative viability ([1]; first compound 0.3162 µM) | relative viability ([1]; first compound 1 µM) | relative viability ([1]; first compound 3.162 µM) | relative viability ([1]; first compound 10 µM) | relative viability ([2]; first compound 0.1 µM) | relative viability ([2]; first compound 0.3162 µM) | relative viability ([2]; first compound 1 µM) | relative viability ([2]; first compound 3.162 µM) | relative viability ([2]; first compound 10 µM) | relative viability ([3]; first compound 0.6325 µM) | relative viability ([3]; first compound 2 µM) | relative viability ([3]; first compound 6.325 µM) | relative viability ([3]; first compound 20 µM) | relative viability ([4]; first compound 0.6325 µM) | relative viability ([4]; first compound 2 µM) | relative viability ([4]; first compound 6.325 µM) | relative viability ([4]; first compound 20 µM)
NCI-H2347 | 0.293 | 0.275 | 0.388 | 0.289 | 0.302 | 0.404 | 0.513 | 0.431 | 0.52 | 0.538 | 0.355 | 0.365 | 0.284 | 0.321 | 0.609 | 0.654 | 0.48 | 0.372
LU99A | 0.561 | 0.65 | 0.595 | 0.553 | 0.489 | 0.164 | 0.207 | 0.168 | 0.19 | 0.162 | 0.174 | 0.184 | 0.206 | 0.207 | 0.152 | 0.13 | 0.106 | 0.132
NCI-H1915 | 0.296 | 0.34 | 0.311 | 0.288 | 0.265 | 0.483 | 0.693 | 0.602 | 0.515 | 0.443 | 0.346 | 0.36 | 0.149 | 0.132 | 0.387 | 0.346 | 0.165 | 0.127
H3255 | 0.664 | 0.682 | 0.625 | 0.578 | 0.588 | 0.554 | 0.61 | 0.571 | 0.555 | 0.595 | 0.435 | 0.707 | 0.385 | 0.448 | 0.713 | 0.611 | 0.354 | 0.388
BEN | 0.967 | 1.12 | 1.06 | 1.11 | 1.01 | 0.941 | 0.682 | 0.997 | 0.665 | 0.825 | 0.231 | 0.374 | 0.176 | 0.294 | 0.55 | 0.677 | 0.447 | 0.472
NCI-H23 | 0.395 | 0.392 | 0.38 | 0.443 | 0.348 | 0.787 | 0.687 | 0.834 | 0.715 | 0.705 | 0.228 | 0.394 | 0.332 | 0.241 | 0.158 | 0.238 | 0.251 | 0.202
NCI-H1944 | 0.349 | 0.406 | 0.417 | 0.387 | 0.388 | 0.614 | 0.711 | 0.566 | 0.619 | 0.707 | 0.557 | 0.312 | 0.167 | 0.149 | 0.414 | 0.276 | 0.21 | 0.153
NCI-H441 | 0.483 | 0.426 | 0.552 | 0.45 | 0.265 | 0.28 | 0.273 | 0.277 | 0.255 | 0.219 | 0.231 | 0.332 | 0.304 | 0.309 | 0.964 | 0.411 | 0.277 | 0.288
